Measured values taken from the supplement of paper PMC4862054.
“And” between values parts separate entries of the source, which are not always exact repeats. Equal values may be shown once.

Legend:
MDA-MB-453 [1] = test: normalised viability (% of control), CellTiter-Blue; higher = more viable cells (about 100 = DMSO control); conditions: incubation time: 72 h
Protocol: (§1)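 DSRT, CellTiter-Blue viability, 72 h incubation. Signal is normalised to DMSO and benzethonium chloride controls. Value is the normalised response at dose 9.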

DU-4475 [2] = test: as above; conditions: incubation time: 72 h
Protocol: as §1

CAL-51 [3] = test: as above; conditions: incubation time: 72 h
Protocol: as §1

HDQ-P1 = test: as above; conditions: incubation time: 72 h
Protocol: as §1

CAL-85-1 = test: as above; conditions: incubation time: 72 h
Protocol: as §1

CAL-148 = test: as above; conditions: incubation time: 72 h
Protocol: as §1

BT-549 = test: normalised response (% of control), CellTiter-Glo; higher = more viable cells (100 = DMSO, 0 = benzethonium chloride kill control); conditions: incubation time: 72 h
In short: (§2)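 Two readouts were taken after 72 h: CellTox Green fluorescence (485/520 nm) first, then CellTiter-Glo luminescence after 10 min at room temperature. Breast cancer cell lines had been seeded as 20 µl suspension into 384-well plates holding compound at 5 concentrations in 10-fold steps across a compound-specific 10,000-fold range. Each value is a normalised signal at a single concentration, with plates scaled to 0.1 % DMSO (100) and a positive kill control (0).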

DU-4475 [4] = test: as above; conditions: incubation time: 72 h
In short: as §2

MFM-223 = test: as above; conditions: incubation time: 72 h
In short: as §2

MDA-MB-436 = test: as above; conditions: incubation time: 72 h
In short: as §2

MDA-MB-468 = test: as above; conditions: incubation time: 72 h
In short: as §2

CAL-51 [5] = test: as above; conditions: incubation time: 72 h
In short: as §2

SK-BR-3 = test: as above; conditions: incubation time: 72 h
In short: as §2

CAL-120 = test: as above; conditions: incubation time: 72 h
In short: as §2

BT-474 = test: as above; conditions: incubation time: 72 h
In short: as §2

HCC1599 = test: as above; conditions: incubation time: 72 h
In short: as §2

CAL-51 [6] = conditions: 72 h
In short: (§3)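 Per-plate normalisation used 0.1 % DMSO and a positive kill control. Breast cancer cell lines (20 µl suspension) were seeded into 384-well plates containing compound at 5 concentrations in 10-fold steps across a compound-specific 10,000-fold range, incubated for 72 h, and read first for CellTox Green fluorescence (485/520 nm), then for CellTiter-Glo luminescence. EC50 was fitted from the dose-response curves and censored at the top concentration.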

MDA-MB-453 [7] = conditions: 72 h
In short: (§4)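 EC50 is the value from a fitted percent-inhibition dose-response curve, censored at the highest concentration, and rows with zero drug sensitivity score were not kept. The underlying assay seeded breast cancer cell lines in 20 µl onto 384-well plates pre-loaded with compound in 5 µl medium for 72 h. Viability was then read by CellTiter-Blue fluorescence at 560/590 nm after 2 h at 37 °C, with each plate normalised to vehicle and a positive kill control.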

DU-4475 [8] = conditions: 72 h
In short: as §4

MDA-MB-453 [9] = conditions: 72 h; remark: listed apart in the source
In short: as §3

Structure (SMILES) | normalised viability (MDA-MB-453 [1]) | normalised viability (DU-4475 [2]) | normalised viability (CAL-51 [3]) | normalised viability (HDQ-P1) | normalised viability (CAL-85-1) | normalised viability (CAL-148) | normalised response (BT-549) | normalised response (DU-4475 [4]) | normalised response (MFM-223) | normalised response (MDA-MB-436) | normalised response (MDA-MB-468) | normalised response (CAL-51 [5]) | normalised response (SK-BR-3) | normalised response (CAL-120) | normalised response (BT-474) | normalised response (HCC1599) | EC50, CellTiter-Glo (CAL-51 [6]) | EC50, CellTiter-Blue viability (MDA-MB-453 [7]) | EC50, CellTiter-Blue viability (DU-4475 [8]) | EC50, CellTiter-Glo (MDA-MB-453 [9])
CC(C)C[C@H](NC(=O)[C@@H](COC(C)(C)C)NC(=O)[C@H](Cc1ccc(O)cc1)NC(=O)[C@H](CO)NC(=O)[C@H](Cc1c[nH]c2ccccc12)NC(=O)[C@H](Cc1cnc[nH]1)NC(=O)[C@@H]1CCC(=O)N1)C(=O)N[C@@H](CCCNC(=N)N)C(=O)N1CCC[C@H]1C(=O)NNC(N)=O [Goserelin] (10000 nM) | 89.8% | 104% | 109% | 140% | 84.9% | 102% | 101% | 97.1% | 98.9% | 97.7% | 93.7% | 113% | 102% | 94.8% | 92.6% | 97.5% |  |  |  | 
CO[C@@]12[C@H](COC(N)=O)C3=C(C(=O)C(C)=C(N)C3=O)N1C[C@@H]1N[C@@H]12 [Mitomycin C] (10000 nM) | 5.36% | -0.46% | 4.34% | 42.6% | 2.67% | 1.89% | 15% | 69% | 86.5% | 41.7% | 22.5% | 5.75% | 58.4% | 88.1% | 69.5% | 57.4% |  |  |  | 
O=C(O)CNC(=O)c1c(O)c2ccccc2n(Cc2ccccc2)c1=O [IOX-2] |  |  |  |  |  |  |  |  |  |  |  |  |  |  |  |  | 1020 nM |  |  | 
COc1cc(Nc2c(C#N)cnc3cc(OCCCN4CCN(C)CC4)c(OC)cc23)c(Cl)cc1Cl [Bosutinib] (10000 nM) | 4.44% | 4.38% | 11.1% | 4.45% | 12.4% | 9.6% | 15.6% | 70% | 41.2% | 5.63% | 1.43% | 25% | 1.81% | 43.4% | 2.86% | 13.5% |  |  |  | 
Cn1cc(C2=C(c3cn(C4CCN(Cc5ccccn5)CC4)c4ccccc34)C(=O)NC2=O)c2ccccc21 [Enzastaurin] (10000 nM) | 51.9% | 86% | 89.8% | 78.1% | 88.4% | 67.4% | 61.2% | 105% | 103% | 101% | 82.9% | 82.1% | 85.6% | 91.1% | 96% | 78.2% |  |  |  | 
COc1ccc(S(=O)(=O)Nc2cccnc2Nc2ccc(O)cc2)cc1 [ABT-751] (10000 nM) | 20.6% | 6.9% | 6.42% | 32.6% | 23.6% | 12.7% | 40.3% | 43.6% | 38.4% | 26.8% | 29.2% | 25.2% | 12.3% | 61.1% | 53.8% | 16.5% |  |  |  | 
Cc1cc(Nc2nc(N[C@@H](C)c3ncc(F)cn3)ncc2Cl)[nH]n1 [AZD1480] |  |  |  |  |  |  |  |  |  |  |  |  |  |  |  |  |  | 782 nM | 443 nM | 
O=C(CCCCCCC(=O)Nc1ccccc1)NO [Vorinostat] (10000 nM) | 3.12% and 2.8% | 50.1% and 46.5% | 59.7% and 50.3% | 51.6% and 62.6% | 30.1% and 32.4% | 13.3% and 16% | 47.7% | 27.8% | 31.5% | 52.2% | 22% | 22.8% | 14.1% | 46.1% | 17.3% | 8.35% |  |  |  | 
CC(O)(CS(=O)(=O)c1ccc(F)cc1)C(=O)Nc1ccc(C#N)c(C(F)(F)F)c1 (stereo unspecified) [Bicalutamide] (10000 nM) | 100% | 121% | 112% | 128% | 102% | 107% | 94.2% | 98.4% | 101% | 114% | 109% | 92.8% | 103% | 105% | 108% | 95.5% |  |  |  | 
CN[C@@H](C)C(=O)N[C@H]1CN(C(=O)CC(C)C)CC[C@H]2CC[C@@H](C(=O)NC(c3ccccc3)c3ccccc3)N2C1=O [AT-406] |  |  |  |  |  |  |  |  |  |  |  |  |  |  |  |  |  |  |  | 4490 nM
